Assay results published in PMC5431342, “Discovery of an enzyme and substrate selective inhibitor of ADAM10 using an exosite-binding glycosylated substrate” (Scientific Reports, 2016).

How the values were obtained:
ADAM17 = molecular target: T1, ADAM17 (Homo sapiens, UniProt P78536); test: HPLC-based ADAM17 assay using glycosylated substrate; type: biochemical
T1 construct: purchased R&D Systems 930-ADB
Experimental: Both assays followed the same general protocol. 30 µL of 3x enzyme solution (30 nM) in assay buffer (10 mM Hepes, 0.001% Brij-35, pH 7.5) were added to solid bottom black 384 plates. Next, 30 µL of 3x test compounds and pharmacological controls were added to corresponding wells. After 30 min incubation at RT, the reactions were started by addition of 30 µL of 3x solution of glycosylated substrate (30 µM). Reactions were incubated at RT for 2 h and then quenched with 10 µL of 500 µM EDTA. Analytical RP-HPLC was performed on a 1260 Infinity Agilent Technologies liquid chromatograph equipped with an Agilent Poroshell 120 column. Eluents were 0.1% TFA in water (A) and 0.1% TFA in acetonitrile (B). The elution gradient was 0–98% B in 15 min with a flow rate of 1.0 mL/min. Detection was at λ = 214, 360, and 460 nm.

[1] = system: CCL2-induced migration of peripheral blood mononuclear cells (PBMC); test: PBMC migration assay; type: cell-based; conditions: statistical significance not reached
Experimental: For PBMC or primary human neutrophil chemotaxis assays, transwells with 8 or 5 µm pores were filled with 100 µL of cell suspension (1 × 10^6 cells in 100 µL DMEM + 0.2% BSA). Lower wells were filled with stimulus solution (3 nM CCL2 or 10 µg/mL CXCL8 (IL8) in assay buffer (RPMI + 0.2% BSA). After incubation of PBMCs for 2 h or neutrophils for 45 min, migrated cells were quantified in the lower well. For inhibitor studies, cells were pre-incubated in migration medium for 30 min and subsequently subjected to the migration experiment. Migrated neutrophils or PBMCs were quantified by measurement of endogenous glucuronidase activity as described.

T1 sequence (P78536 215-824): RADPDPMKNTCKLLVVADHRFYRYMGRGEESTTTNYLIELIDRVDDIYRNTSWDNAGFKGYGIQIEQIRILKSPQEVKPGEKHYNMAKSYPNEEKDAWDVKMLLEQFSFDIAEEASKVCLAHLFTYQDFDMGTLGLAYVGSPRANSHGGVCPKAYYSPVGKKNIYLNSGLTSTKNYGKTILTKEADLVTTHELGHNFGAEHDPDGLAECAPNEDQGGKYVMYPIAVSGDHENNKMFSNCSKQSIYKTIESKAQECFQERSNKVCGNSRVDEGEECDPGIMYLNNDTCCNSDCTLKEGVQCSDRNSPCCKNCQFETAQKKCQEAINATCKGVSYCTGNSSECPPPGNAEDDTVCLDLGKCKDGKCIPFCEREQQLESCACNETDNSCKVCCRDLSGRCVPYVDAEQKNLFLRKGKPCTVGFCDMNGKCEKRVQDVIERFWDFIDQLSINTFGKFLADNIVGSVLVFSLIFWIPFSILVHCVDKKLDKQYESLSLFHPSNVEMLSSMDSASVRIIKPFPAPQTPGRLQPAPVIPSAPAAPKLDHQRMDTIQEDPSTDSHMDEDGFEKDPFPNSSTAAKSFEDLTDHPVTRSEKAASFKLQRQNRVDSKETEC

- inhibition of ADAM17-mediated hydrolysis of glycosylated substrate (ADAM17): not appreciably inhibited
Compound: COc1cccc(C(=O)NNC(=O)C(=O)Nc2ccc(C)c(Cl)c2)c1 [CID 3117694]
- inhibition of PBMC migration [1]: approximately 50%
